We go through five compounds from the NIST ThermoML archive (doi:10.1016/j.jct.2008.07.009).

Broadly, the mass density is mass per unit of volume.

The conditions of the series: 101.33 kPa, Liquid, Vibrating tube method.

Numbers after ± are expanded uncertainties.

For the compound `c1ccccc1` [benzene], the mass density was determined as 878.9 ± 6 kg/m3 (293.15 K); 868.2 ± 6 kg/m3 (303.15 K); 857.4 ± 6 kg/m3 (313.15 K); 846.5 ± 6 kg/m3 (323.15 K); 835.7 ± 6 kg/m3 (333.15 K); 824.7 ± 6 kg/m3 (343.15 K).
Consider `Cc1cc(C)cc(C)c1` [1,3,5-trimethylbenzene], for which the mass density (293.15 K) was 865.1 ± 6 kg/m3; the mass density (303.15 K) is listed as 856.9 ± 6 kg/m3; the mass density (313.15 K) was 842.8 ± 6 kg/m3; the mass density (323.15 K) was 834.7 ± 6 kg/m3; the mass density (333.15 K) is given as 826.6 ± 6 kg/m3; the mass density (343.15 K) is given as 818.5 ± 6 kg/m3.
Take `Cc1ccccc1` [toluene]: the mass density by setting is: (293.15 K) 866.8 ± 6 kg/m3; (303.15 K) 857.5 ± 6 kg/m3; (313.15 K) 848.8 ± 6 kg/m3; (323.15 K) 838.9 ± 6 kg/m3; (333.15 K) 829.6 ± 6 kg/m3; (343.15 K) 820.2 ± 6 kg/m3.
Consider `CCc1ccccc1` [ethylbenzene], for which the mass density (293.15 K) stood at 867.2 ± 6 kg/m3; the mass density (303.15 K) came to 858.3 ± 6 kg/m3; the mass density (313.15 K) worked out at 849.3 ± 6 kg/m3; the mass density (323.15 K) was 840.3 ± 6 kg/m3; the mass density (333.15 K) was 831.2 ± 6 kg/m3; the mass density (343.15 K) worked out at 822.1 ± 6 kg/m3.
On to `CC(=O)N1CCOCC1` [4-acetylmorpholine], for which the mass density runs as follows: (293.15 K) 1113.8 ± 6.1 kg/m3; (303.15 K) 1105.9 ± 6.1 kg/m3; (313.15 K) 1097.3 ± 6.1 kg/m3; (323.15 K) 1088.7 ± 6.1 kg/m3; (333.15 K) 1080.1 ± 6.1 kg/m3; (343.15 K) 1071.5 ± 6.1 kg/m3.
